Results reported in ChEMBL document CHEMBL5465560, “Selectivity Literature for EUbOPEN Chemogenomic Library” (2024).

Key:
[1] = target: T1, Interleukin-1 receptor-associated kinase 4 (Homo sapiens) (UniProt Q9NWZ3); assay: Selectivity interaction (Kinase panel (KiNativ target engagement assay in Jurkat cells)) EUB0001635a IRAK4; format: cell-based; conditions: Selectivity number of off-targets 0.0, Selectivity number of targets 233.0, Source Knowledge https://www.sciencedirect.com/science/article/pii/S2451945619300674?via%3Dihub, at 1 µM
T1 sequence (whole entry): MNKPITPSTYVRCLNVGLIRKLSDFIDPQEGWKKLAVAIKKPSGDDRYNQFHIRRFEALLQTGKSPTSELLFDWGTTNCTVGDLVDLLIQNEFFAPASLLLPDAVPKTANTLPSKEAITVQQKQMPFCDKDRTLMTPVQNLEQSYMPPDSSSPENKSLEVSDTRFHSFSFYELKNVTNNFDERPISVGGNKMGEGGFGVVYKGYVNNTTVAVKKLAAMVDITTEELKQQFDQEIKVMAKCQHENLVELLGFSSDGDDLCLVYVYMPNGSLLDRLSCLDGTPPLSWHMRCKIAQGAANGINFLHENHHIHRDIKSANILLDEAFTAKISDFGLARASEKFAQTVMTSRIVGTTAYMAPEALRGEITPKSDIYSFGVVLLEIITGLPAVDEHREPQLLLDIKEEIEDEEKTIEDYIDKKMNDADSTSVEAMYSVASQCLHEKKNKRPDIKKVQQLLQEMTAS

[2] = target: T2, Rhodopsin kinase GRK7 (Homo sapiens) (UniProt Q8WTQ7); assay: Selectivity interaction (KinomeScan (DiscoverX)) EUB0000229b GRK7; conditions: at 10 µM
T2 sequence (whole entry): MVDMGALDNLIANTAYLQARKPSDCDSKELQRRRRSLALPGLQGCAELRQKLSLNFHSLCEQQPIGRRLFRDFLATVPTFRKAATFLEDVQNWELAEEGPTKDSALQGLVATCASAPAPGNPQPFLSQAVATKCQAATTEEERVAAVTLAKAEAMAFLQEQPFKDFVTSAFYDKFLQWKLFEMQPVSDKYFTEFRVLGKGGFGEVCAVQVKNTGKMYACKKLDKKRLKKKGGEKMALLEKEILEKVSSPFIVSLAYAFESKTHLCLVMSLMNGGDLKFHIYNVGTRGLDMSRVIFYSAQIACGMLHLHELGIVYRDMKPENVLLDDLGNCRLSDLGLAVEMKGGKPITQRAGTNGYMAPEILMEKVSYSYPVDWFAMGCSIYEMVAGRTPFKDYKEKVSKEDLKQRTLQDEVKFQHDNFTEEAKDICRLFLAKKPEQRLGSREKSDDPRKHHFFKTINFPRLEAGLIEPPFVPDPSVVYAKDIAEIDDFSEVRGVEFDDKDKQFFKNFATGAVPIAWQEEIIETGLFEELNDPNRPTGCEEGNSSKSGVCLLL

[3] = target: Ribosomal protein S6 kinase alpha-6 (Homo sapiens, UniProt Q9UK32); assay: Selectivity interaction (KinomeScan (DiscoverX)) EUB0000695a RPS6KA6; conditions: at 100 nM
[4] = target: T3, Mitogen-activated protein kinase kinase kinase 7 (Homo sapiens) (UniProt O43318); assay: Selectivity interaction (KinomeScan (DiscoverX)) EUB0001079a MAP3K7; conditions: at 1 µM
T3 sequence (whole entry): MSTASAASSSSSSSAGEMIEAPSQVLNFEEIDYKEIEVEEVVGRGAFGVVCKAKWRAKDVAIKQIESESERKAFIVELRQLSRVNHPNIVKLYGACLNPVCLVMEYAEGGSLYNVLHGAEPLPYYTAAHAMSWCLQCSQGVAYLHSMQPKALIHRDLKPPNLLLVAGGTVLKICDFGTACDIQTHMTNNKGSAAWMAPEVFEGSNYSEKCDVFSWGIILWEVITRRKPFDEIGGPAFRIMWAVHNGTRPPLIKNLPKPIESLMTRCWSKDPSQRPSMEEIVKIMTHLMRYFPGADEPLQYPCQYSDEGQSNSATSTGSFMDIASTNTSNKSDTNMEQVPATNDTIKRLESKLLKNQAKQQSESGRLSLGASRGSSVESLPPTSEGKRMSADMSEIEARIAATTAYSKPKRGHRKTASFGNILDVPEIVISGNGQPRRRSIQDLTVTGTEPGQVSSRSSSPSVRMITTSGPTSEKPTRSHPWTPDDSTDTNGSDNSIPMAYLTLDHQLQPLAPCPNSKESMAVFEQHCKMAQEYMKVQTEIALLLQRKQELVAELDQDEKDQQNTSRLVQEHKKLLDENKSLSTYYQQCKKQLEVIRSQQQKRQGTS

[5] = target: Glycogen synthase kinase-3 alpha (Homo sapiens, UniProt P49840); assay: Selectivity interaction (Kinase counterscreening (biochemical assay)) EUB0000604a GSK3A
[6] = target: Mitogen-activated protein kinase kinase kinase 8 (Homo sapiens, UniProt P41279); assay: Selectivity interaction (ProQinase) EUB0000171b MAP3K8
[7] = tested on: Epidermal growth factor receptor (Homo sapiens), P00533 [UNDEFINED MUTATION]; assay: Selectivity interaction (Ambit KINOMEscan and KiNATiv profiling in Jurkat cells) EUB0000090b EGFR; format: cell-based; conditions: at 1 µM
Sequence of Epidermal growth factor receptor (Homo sapiens), P00533 [UNDEFINED MUTATION] (P00533 whole entry, looked up, change not shown): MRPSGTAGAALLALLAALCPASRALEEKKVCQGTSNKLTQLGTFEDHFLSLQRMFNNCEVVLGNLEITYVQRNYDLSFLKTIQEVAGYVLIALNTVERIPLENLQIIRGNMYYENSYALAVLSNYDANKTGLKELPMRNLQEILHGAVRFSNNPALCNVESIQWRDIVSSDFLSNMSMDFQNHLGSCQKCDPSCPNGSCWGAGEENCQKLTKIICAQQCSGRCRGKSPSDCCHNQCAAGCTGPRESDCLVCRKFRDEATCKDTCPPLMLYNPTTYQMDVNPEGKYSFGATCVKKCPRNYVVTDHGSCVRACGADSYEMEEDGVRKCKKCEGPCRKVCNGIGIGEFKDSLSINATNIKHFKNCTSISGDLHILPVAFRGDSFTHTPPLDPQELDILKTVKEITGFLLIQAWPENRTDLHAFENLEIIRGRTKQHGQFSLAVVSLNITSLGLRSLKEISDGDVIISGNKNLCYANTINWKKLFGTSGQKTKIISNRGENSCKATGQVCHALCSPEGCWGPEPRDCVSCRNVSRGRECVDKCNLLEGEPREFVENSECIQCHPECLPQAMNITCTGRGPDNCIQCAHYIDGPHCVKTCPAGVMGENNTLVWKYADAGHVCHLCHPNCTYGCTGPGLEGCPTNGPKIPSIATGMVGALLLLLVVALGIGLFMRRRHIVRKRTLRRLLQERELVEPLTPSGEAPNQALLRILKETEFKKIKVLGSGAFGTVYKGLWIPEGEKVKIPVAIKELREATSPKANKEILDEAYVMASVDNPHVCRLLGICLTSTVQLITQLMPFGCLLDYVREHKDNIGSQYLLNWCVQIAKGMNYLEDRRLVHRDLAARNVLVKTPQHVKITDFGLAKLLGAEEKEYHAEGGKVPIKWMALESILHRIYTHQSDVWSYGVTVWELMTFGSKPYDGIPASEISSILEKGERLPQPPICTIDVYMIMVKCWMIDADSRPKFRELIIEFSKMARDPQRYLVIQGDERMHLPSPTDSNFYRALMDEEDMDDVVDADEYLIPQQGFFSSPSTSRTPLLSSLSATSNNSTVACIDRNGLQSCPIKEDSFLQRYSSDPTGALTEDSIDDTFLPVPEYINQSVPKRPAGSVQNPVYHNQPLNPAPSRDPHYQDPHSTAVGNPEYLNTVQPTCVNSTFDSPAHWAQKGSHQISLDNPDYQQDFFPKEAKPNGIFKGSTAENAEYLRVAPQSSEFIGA

Sequence of Mitogen-activated protein kinase kinase kinase 8 (P41279 whole entry): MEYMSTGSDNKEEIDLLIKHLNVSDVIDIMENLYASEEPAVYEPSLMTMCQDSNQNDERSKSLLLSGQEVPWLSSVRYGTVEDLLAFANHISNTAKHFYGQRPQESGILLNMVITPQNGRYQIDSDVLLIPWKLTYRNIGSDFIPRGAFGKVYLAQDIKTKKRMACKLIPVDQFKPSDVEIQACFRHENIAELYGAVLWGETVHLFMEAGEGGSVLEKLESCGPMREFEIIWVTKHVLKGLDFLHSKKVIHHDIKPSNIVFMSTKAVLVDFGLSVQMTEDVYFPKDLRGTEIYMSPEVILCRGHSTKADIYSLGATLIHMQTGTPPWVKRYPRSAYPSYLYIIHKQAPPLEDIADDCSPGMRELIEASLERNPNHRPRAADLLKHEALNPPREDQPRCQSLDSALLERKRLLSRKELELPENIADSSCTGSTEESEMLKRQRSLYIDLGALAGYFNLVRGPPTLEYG
Sequence of Ribosomal protein S6 kinase alpha-6 (Q9UK32 whole entry): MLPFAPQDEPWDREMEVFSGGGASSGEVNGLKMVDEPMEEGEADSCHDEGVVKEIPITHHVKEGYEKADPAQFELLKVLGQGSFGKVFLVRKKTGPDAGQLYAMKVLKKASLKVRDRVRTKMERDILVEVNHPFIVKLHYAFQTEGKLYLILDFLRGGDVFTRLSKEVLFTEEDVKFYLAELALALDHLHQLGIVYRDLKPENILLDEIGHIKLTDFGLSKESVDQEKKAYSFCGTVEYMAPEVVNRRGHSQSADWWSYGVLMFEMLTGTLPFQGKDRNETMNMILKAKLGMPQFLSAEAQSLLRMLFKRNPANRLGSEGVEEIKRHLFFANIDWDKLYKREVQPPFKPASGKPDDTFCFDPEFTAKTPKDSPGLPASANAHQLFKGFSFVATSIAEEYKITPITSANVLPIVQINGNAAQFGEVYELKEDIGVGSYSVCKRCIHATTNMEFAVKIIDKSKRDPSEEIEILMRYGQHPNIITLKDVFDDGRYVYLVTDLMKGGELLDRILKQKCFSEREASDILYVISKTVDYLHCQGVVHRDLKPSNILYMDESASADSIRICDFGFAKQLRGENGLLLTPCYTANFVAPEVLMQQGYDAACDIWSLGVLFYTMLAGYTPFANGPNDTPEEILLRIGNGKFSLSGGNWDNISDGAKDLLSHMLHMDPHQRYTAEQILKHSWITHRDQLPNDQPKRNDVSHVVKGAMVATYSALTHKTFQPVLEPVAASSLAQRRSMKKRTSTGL
Sequence of Glycogen synthase kinase-3 alpha (P49840 whole entry): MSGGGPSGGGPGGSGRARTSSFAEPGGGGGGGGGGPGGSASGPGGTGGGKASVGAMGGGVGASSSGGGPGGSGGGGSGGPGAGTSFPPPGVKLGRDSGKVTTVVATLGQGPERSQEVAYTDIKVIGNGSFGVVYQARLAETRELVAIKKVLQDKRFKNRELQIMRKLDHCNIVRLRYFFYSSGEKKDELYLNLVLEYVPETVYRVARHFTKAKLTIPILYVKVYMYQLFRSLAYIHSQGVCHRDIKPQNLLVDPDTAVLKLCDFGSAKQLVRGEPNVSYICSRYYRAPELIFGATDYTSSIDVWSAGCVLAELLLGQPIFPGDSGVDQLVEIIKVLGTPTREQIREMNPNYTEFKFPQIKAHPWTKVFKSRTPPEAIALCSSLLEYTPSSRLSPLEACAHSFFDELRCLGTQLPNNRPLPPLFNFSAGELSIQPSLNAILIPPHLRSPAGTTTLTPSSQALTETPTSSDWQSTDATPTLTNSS

C=CC(=O)Nc1ccc(C(=O)Nc2[nH]nc3c2CN(C(=O)N[C@H](CN(C)C)c2ccccc2)C3(C)C)cc1
% of engagement [1]: 0.4%

COc1cc(N(C)c2ccnc3ccc(C(F)(F)F)cc23)cc(OC)c1OC
% binding [2]: 69%

Cc1cc(F)c(C(=O)Nc2cccc(-c3nncn3C(C)C)n2)cc1-n1cnc(C2CC2)c1
% of control [3]: 22%

Nc1cnc(N2CCc3cc(S(=O)(=O)Nc4c(F)cc(Cl)cc4F)cc(N4CCCC4=O)c32)nc1 [TP-020n]
% of control [4]: 100%

Cc1cnc(Nc2ccc(F)cc2Cl)nc1-c1c[nH]c(C(=O)N[C@H](CO)c2cccc(Cl)c2)c1
Ki [5]: 400 nM

C=CC(=O)Nc1cccc(C(=O)Nc2ccc(Nc3cc(-c4[nH]c(SC)nc4C)ccn3)cc2)c1
% of control ([6]; at 1 µM): 95% | % of control ([6]; at 5 µM): 103%

CN(C)C/C=C/C(=O)Nc1ccc(C(=O)N2CCCC(Nc3ncc(Cl)c(-c4c[nH]c5ccccc45)n3)C2)cc1 (stereo not drawn)
% of control [7]: 91%
